# Data as given in patent publication US6995185B2, “Δ1-pyrrolines used as pesticides” (Bayer Cropscience AG, priority 2000, dated 2006).
# System: Liriomyza trifolii
# Assay: Liriomyza test
# Assay type: in vivo
# Conditions: 1000 ppm, bean plants (Phaseolus vulgaris) dipped
# Experimental: Liriomyza Test • Solvent: 3 parts by weight of dimethylformamide • Emulsifier: 1 part by weight of alkylaryl polyglycol ether To produce a suitable preparation of active compound, 1 part by weight of active compound is mixed with the stated amounts of solvent and emulsifier, and the concentrate is diluted with emulsifier-containing water to the desired concentration. Bean plants (Phaseolus vulgaris) which are infested by eggs and development stages of […] (Liriomyza trifolii) are dipped into a preparation of active compound of the desired concentration. After the desired period of time, the effect in % is determined. 100% means that all […] have been killed; 0% means that none of the […] have been killed.
row,SMILES,Kill rate in % after 7 days
1,COC(=O)C1CC(c2c(F)cccc2F)=NC1c1ccc(-c2ccc(OC(F)(F)F)cc2)cc1 (stereo not shown) [drawing 145],100%

# System: caterpillars of the army worm (Spodoptera frugiperda)
# Assay: Spodoptera frugiperda test
# Assay type: in vivo
# Conditions: 1000 ppm, cabbage leaves (Brassica oleracea) dipped
# Experimental: (§1) Spodoptera frugiperda Test • Solvent: 30 parts by weight of dimethylformamide • Emulsifier: 1 part by weight of alkylaryl polyglycol ether To produce a suitable preparation of active compound, 1 part by weight of active compound is mixed with the stated amounts of solvent and emulsifier, and the concentrate is diluted with emulsifier-containing water to the desired concentration. Cabbage leaves (Brassica oleracea) are treated by being dipped into the preparation of active compound of the desired concentration and are populated with caterpillars of the army worm (Spodoptera frugiperda) while the leaves are still moist. After the desired period of time, the kill in % is determined. 100% means that all caterpillars have been killed; 0% means that none of the caterpillars have been killed.
row,SMILES,Kill rate in % after 7 days
1,N#CC1CC(c2c(F)cccc2F)=NC1c1ccc(-c2ccc(OC(F)(F)F)cc2)cc1 (stereo not shown) [drawing 154],100%
2,COC(=O)C1CC(c2ccccc2Cl)=NC1c1ccc(-c2ccc(OC(F)(F)F)cc2)cc1 (stereo not shown) [drawing 152],100%
3,COC(=O)C1CC(c2c(F)cccc2F)=NC1c1ccc(-c2ccc(OC(F)(F)F)cc2)cc1 (stereo not shown) [drawing 151],100%
4,N#CC1CC(c2ccccc2Cl)=NC1c1ccc(-c2ccc(OC(F)(F)F)cc2)cc1 (stereo not shown),100%
5,CC(C)c1ccc(-c2ccc(C3N=C(c4ccccc4Cl)CC3C#N)cc2)cc1 (stereo not shown),100%

# System: Meloidogyne icognita
# Assay: Meloidogyne test
# Assay type: in vivo
# Conditions: 20 ppm, lettuce in sand, nematicidal action by formation of galls
# Experimental: Meloidogyne Test • Solvent: 30 parts by weight of dimethylformamide • Emulsifier: 1 part by weight of alkylaryl polyglycol ether To produce a suitable preparation of active compound, 1 part by weight of active compound is mixed with the stated amounts of solvent and emulsifier, and the concentrate is diluted with emulsifier-containing water to the desired concentration. Vessels are filled with sand, solution of active compound, Meloidogyne icognita egg/larvae suspension and lettuce seeds. The lettuce seeds germinate and the plants develop. On the roots, galls develop. After the desired period of time, the nematicidal action is determined in % by the formation of galls. 100% means that no galls have been found; 0% means that the number of galls on the treated plants corresponds to that of the untreated control.
row,SMILES,Kill rate in % after 14 days
1,COC(=O)C1CC(c2c(F)cccc2F)=NC1c1ccc(-c2ccc(OC(F)(F)F)cc2)cc1 (stereo not shown) [drawing 146],100%
2,N#CC1CC(c2c(F)cccc2F)=NC1c1ccc(-c2ccc(OC(F)(F)F)cc2)cc1 (stereo not shown) [drawing 147],90%

# System: larvae of the mustard beetle (Phaedon cochloeariae)
# Assay: Phaedon larvae test
# Assay type: in vivo
# Conditions: 1000 ppm, cabbage leaves (Brassica oleracea) dipped
# Experimental: as §1, with “Phaedon larvae Test” for “Spodoptera frugiperda Test”, “with larvae” for “with caterpillars”, “the mustard beetle (Phaedon cochloeariae)” for “the army worm (Spodoptera frugiperda)”, “all beetle larvae” for “all caterpillars”, “the beetle larvae” for “the caterpillars”
row,SMILES,Kill rate in % after 7 days
1,N#CC1CC(c2c(F)cccc2F)=NC1c1ccc(-c2ccc(OC(F)(F)F)cc2)cc1 (stereo not shown) [drawing 149],100%
2,COC(=O)C1CC(c2ccccc2Cl)=NC1c1ccc(-c2ccc(OC(F)(F)F)cc2)cc1 (stereo not shown) [drawing 150],100%
3,COC(=O)C1CC(c2c(F)cccc2F)=NC1c1ccc(-c2ccc(OC(F)(F)F)cc2)cc1 (stereo not shown) [drawing 148],100%

# System: not listed separately
# Assay: log P determination by HPLC on reversed-phase column (C 18), EEC directive 79/831 Annex V.A8
# Assay type: physicochemical
# Conditions: reversed-phase HPLC column (C 18), pH 2.3, pH 2.3 (marked a), 0.1% aqueous phosphoric acid/acetonitrile, 43° C.
# Experimental: The log P values given in the tables and Preparation Examples above are determined in accordance with EEC directive 79/831 Annex V.A8 by HPLC (High Performance Liquid Chromatography) using a reversed-phase column (C 18). Temperature: 43° C. In the acidic range, the determination is carried out at pH 2.3 using the mobile phases 0.1% aqueous phosphoric acid and acetonitrile; linear gradient from 10% acetonitrile to 90% acetonitrile (marked^a) in the table). In the neutral range, the determination is carried out at pH 7.5 using the mobile phases 0.01-molar aqueous phosphate buffer solution and acetonitrile; linear gradient from 10% acetonitrile to 90% acetonitrile (marked^b) in the table). Calibration is carried out using unbranched alkan-2-ones (having 3 to 16 carbon atoms) with known log P values (determination of the log P values by the retention times using linear interpolation between two successive alkanones).
row,chromatographic logP,SMILES
1,4.23,CC(C)(C)NC(=O)[C@H]1CC(c2c(F)cccc2F)=NC1c1ccc(-c2ccc(OC(F)(F)F)cc2)cc1 (stereo partly shown) [Example 65]
2,3.78,CCCNC(=O)[C@H]1CC(c2c(F)cccc2F)=NC1c1ccc(-c2ccc(OC(F)(F)F)cc2)cc1 (stereo partly shown) [Example 60]
3,4.87,O=C(Nc1ccc(OC(F)(F)F)cc1)[C@H]1CC(c2c(F)cccc2F)=NC1c1ccc(-c2ccc(OC(F)(F)F)cc2)cc1 (stereo partly shown) [Example 92]
4,4.32,O=C([C@H]1CC(c2c(F)cccc2F)=NC1c1ccc(-c2ccc(OC(F)(F)F)cc2)cc1)N1CCCCC1 (stereo partly shown) [Example 77]
5,4.92,CCCN(CCC)C(=O)[C@H]1CC(c2c(F)cccc2F)=NC1c1ccc(-c2ccc(OC(F)(F)F)cc2)cc1 (stereo partly shown) [Example 73]
6,3.9,CCN(C)C(=O)[C@H]1CC(c2c(F)cccc2F)=NC1c1ccc(-c2ccc(OC(F)(F)F)cc2)cc1 (stereo partly shown) [Example 68]
7,3.49,O=C([C@H]1CC(c2c(F)cccc2F)=NC1c1ccc(-c2ccc(OC(F)(F)F)cc2)cc1)N1CCOCC1 (stereo partly shown) [Example 90]
8,6.22,CC1CCC(OC(=O)[C@H]2CC(c3c(F)cccc3F)=NC2c2ccc(-c3ccc(OC(F)(F)F)cc3)cc2)CC1 (stereo partly shown) [Example 48]
9,4.73,CCOC(=O)[C@H]1CC(c2c(F)cccc2F)=NC1c1ccc(-c2ccc(OC(F)(F)F)cc2)cc1 (stereo partly shown) [Example 10]
10,5.05,CC(C)OC(=O)[C@H]1CC(c2c(F)cccc2F)=NC1c1ccc(-c2ccc(OC(F)(F)F)cc2)cc1 (stereo partly shown) [Example 12]
11,5.47,O=C(OC1CCCC1)[C@H]1CC(c2c(F)cccc2F)=NC1c1ccc(-c2ccc(OC(F)(F)F)cc2)cc1 (stereo partly shown) [Example 18]
12,4.46,O=C(NC1CCC(C(F)(F)F)CC1)[C@H]1CC(c2c(F)cccc2F)=NC1c1ccc(-c2ccc(OC(F)(F)F)cc2)cc1 (stereo partly shown) [Example 89]
13,4.37,O=C(NC1CCCCC1)[C@H]1CC(c2c(F)cccc2F)=NC1c1ccc(-c2ccc(OC(F)(F)F)cc2)cc1 (stereo partly shown) [Example 66]
14,3.94,O=C(NCC(F)(F)F)[C@H]1CC(c2c(F)cccc2F)=NC1c1ccc(-c2ccc(OC(F)(F)F)cc2)cc1 (stereo partly shown) [Example 86]
15,5.71,CC(C)C(C)OC(=O)[C@H]1CC(c2c(F)cccc2F)=NC1c1ccc(-c2ccc(OC(F)(F)F)cc2)cc1 (stereo partly shown) [Example 22]
16,3.35,O=C(O)[C@H]1CC(c2c(F)cccc2F)=NC1c1ccc(-c2ccc(OC(F)(F)F)cc2)cc1 (stereo partly shown) [Example 11]
17,4.67,COC(=O)[C@H](C)COC(=O)[C@H]1CC(c2c(F)cccc2F)=NC1c1ccc(-c2ccc(OC(F)(F)F)cc2)cc1 (stereo partly shown) [Example 40]
18,4.67,COC(=O)[C@@H](C)COC(=O)[C@H]1CC(c2c(F)cccc2F)=NC1c1ccc(-c2ccc(OC(F)(F)F)cc2)cc1 (stereo partly shown) [Example 39]
19,3.48,O=C(NCC1CCCO1)[C@H]1CC(c2c(F)cccc2F)=NC1c1ccc(-c2ccc(OC(F)(F)F)cc2)cc1 (stereo partly shown) [Example 83]
20,5.21,O=C(OCCOc1ccccc1)[C@H]1CC(c2c(F)cccc2F)=NC1c1ccc(-c2ccc(OC(F)(F)F)cc2)cc1 (stereo partly shown) [Example 42]
21,4.98,CC(C)N(C(=O)COC(=O)[C@H]1CC(c2c(F)cccc2F)=NC1c1ccc(-c2ccc(OC(F)(F)F)cc2)cc1)c1ccc(F)cc1 (stereo partly shown) [Example 46]
22,5.05,"COC(=O)[C@H]1CC(c2ccccc2Cl)=N[C@H]1c1ccc(-c2ccc(OC(F)(F)F)cc2)cc1 (racemic) [Example 5, methyl ((2S, 3R), (2R, 3S))-5-(2-chlorophenyl)-2-[4′-(trifluoromethoxy)-1,1′-biphenyl-4-yl]-3,4-dihydro-2H-pyrrole-3-carboxylate]"
23,5.78,CC(C)(C)COC(=O)[C@H]1CC(c2c(F)cccc2F)=NC1c1ccc(-c2ccc(OC(F)(F)F)cc2)cc1 (stereo partly shown) [Example 21]
24,3.82,O=C([C@H]1CC(c2c(F)cccc2F)=NC1c1ccc(-c2ccc(OC(F)(F)F)cc2)cc1)N1CCCC1 (stereo partly shown) [Example 76]
25,3.61,CN(C)C(=O)[C@H]1CC(c2c(F)cccc2F)=NC1c1ccc(-c2ccc(OC(F)(F)F)cc2)cc1 (stereo partly shown) [Example 67]
26,3.72,O=C(OCCCN1CCCC1=O)[C@H]1CC(c2c(F)cccc2F)=NC1c1ccc(-c2ccc(OC(F)(F)F)cc2)cc1 (stereo partly shown) [Example 45]
27,5.48,C=CCCCOC(=O)[C@H]1CC(c2c(F)cccc2F)=NC1c1ccc(-c2ccc(OC(F)(F)F)cc2)cc1 (stereo partly shown) [Example 26]
28,4.41,Cc1cccc(CNC(=O)[C@H]2CC(c3c(F)cccc3F)=NC2c2ccc(-c3ccc(OC(F)(F)F)cc3)cc2)c1 (stereo partly shown) [Example 98]

# Same assay, conditions: reversed-phase HPLC column (C 18), pH 7.5, pH 7.5 (marked b), 0.01-molar aqueous phosphate buffer/acetonitrile, 43° C.
row,chromatographic logP,SMILES
1,5.54,O=C(OC1CCCC1)[C@H]1CC(c2c(F)cccc2F)=NC1c1ccc(-c2ccc(OC(F)(F)F)cc2)cc1 (stereo partly shown) [Example 18]
